One data set deals with T1, CES1b (Homo sapiens, UniProt P23141).
T1 construct: purchased Corning Incorporated (Corning, NY); host or cells: baculovirus-infected insect cells (microsomal fraction, Supersomes)
T1 sequence (P23141 18-567): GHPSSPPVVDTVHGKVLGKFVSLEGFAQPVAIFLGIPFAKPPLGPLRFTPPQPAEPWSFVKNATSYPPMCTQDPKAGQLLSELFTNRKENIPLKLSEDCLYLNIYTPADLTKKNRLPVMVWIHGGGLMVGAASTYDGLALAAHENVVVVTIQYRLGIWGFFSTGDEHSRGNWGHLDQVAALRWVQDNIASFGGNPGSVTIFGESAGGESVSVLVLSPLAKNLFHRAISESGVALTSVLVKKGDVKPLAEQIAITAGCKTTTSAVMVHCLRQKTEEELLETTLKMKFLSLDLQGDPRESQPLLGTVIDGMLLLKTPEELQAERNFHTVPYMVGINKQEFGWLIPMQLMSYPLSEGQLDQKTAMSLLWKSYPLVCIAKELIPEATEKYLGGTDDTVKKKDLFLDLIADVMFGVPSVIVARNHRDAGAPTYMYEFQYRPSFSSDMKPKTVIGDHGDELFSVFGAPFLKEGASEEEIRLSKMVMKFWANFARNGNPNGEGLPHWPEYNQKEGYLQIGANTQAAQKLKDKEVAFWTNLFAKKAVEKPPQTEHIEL
Kind of data set: CES1b-catalyzed hydrolysis of 4-NPA, inhibition by inhibitors. Format: biochemical. The method, then: (§1) Threefold dilutions of compounds were prepared in 100% DMSO. Compounds (100 μM to 0.005 μM), CES isozymes, and substrate 4-NPA were mixed in a 100-μl reaction volume consisting of 100 mM potassium phosphate buffer (pH 7.4) and 1% DMSO. […] The slopes of the progress curves were used to calculate reaction rates. Reaction rates were plotted as a function of inhibitor concentration, and the data were fit with a four-parameter logistic model using GraphPad Prism software (version 8; La Jolla, CA) to yield IC50 values.
(§2) Data were analyzed using GraphPad Prism 8.0. IC50 values were calculated by nonlinear regression analysis using the following sigmoidal dose-response (variable slope) equation (four-parameter logistic equation). Y=100/[1+10^(logIC50−X)×HillSlope] where X is the log of the concentration of the test compound, and Y is the response. The IC50 values were calculated as an average of three or more independent experiments.

Another data set has as its target T2, CES1c (Homo sapiens, UniProt P23141).
T2 construct: purchased Corning Incorporated (Corning, NY); host or cells: baculovirus-infected insect cells (microsomal fraction, Supersomes)
T2 sequence (P23141 18-566 isoform P23141-3 limits assumed): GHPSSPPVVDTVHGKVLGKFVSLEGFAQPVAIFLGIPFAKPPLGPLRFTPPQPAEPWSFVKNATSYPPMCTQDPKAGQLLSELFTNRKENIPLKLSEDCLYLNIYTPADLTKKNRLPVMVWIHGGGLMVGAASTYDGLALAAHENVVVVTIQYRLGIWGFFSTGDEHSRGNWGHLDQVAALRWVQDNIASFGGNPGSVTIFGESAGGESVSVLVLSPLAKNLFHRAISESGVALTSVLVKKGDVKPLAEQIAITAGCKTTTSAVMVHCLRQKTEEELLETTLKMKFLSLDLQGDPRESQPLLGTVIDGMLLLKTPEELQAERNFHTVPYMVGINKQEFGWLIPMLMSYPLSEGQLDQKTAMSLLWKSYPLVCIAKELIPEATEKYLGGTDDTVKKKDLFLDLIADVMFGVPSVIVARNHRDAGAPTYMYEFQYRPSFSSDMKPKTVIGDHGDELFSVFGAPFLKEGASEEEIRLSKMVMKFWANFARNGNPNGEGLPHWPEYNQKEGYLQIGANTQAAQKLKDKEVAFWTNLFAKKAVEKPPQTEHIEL
Kind of data set: CES1c-catalyzed hydrolysis of 4-NPA, inhibition by inhibitors. Format: biochemical. The method, then: as §1, §2

For data set [1], the target named is T3, HINT1 (Homo sapiens, UniProt P49773).
T3 construct: purchased Abcam (Cambridge, MA)
T3 sequence (P49773 whole entry): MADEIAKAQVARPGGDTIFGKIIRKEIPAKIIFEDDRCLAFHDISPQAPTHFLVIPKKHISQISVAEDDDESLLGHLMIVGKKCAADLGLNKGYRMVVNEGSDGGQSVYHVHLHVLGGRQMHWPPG
Nature of the data set: HINT1-catalyzed hydrolysis of RDV MetX, inhibition. Format: biochemical. Here is the method:
Following protein precipitation and centrifugation, 150 μl of supernatants were dried down and reconstituted with 250 μl water. All samples were analyzed by LC-MS, and PAR values were used for quantification. Disappearance of the MetX substrate was monitored over the incubation time period. Three experiments were conducted with two replicates each experiment, and data are reported as averages from three experiments.
as §2

The next data set has as its system NHBE cells. Kind of data set: Effect of hydrolase inhibitors on GS-443902 formation from RDV in NHBE cells. Conditions: coincubation with 1 μM RDV, 24 h, three donors. It counts as cell-based, human.
The next data set concerns CES1. On the set-up: method as in PMID 20801890, PMID 25870059. Conditions: published data ref 7, 9; cited from earlier work.
For data set [2], the target named is T4, CatA (Homo sapiens, UniProt P10619).
T4 sequence (P10619 29-326 limits assumed): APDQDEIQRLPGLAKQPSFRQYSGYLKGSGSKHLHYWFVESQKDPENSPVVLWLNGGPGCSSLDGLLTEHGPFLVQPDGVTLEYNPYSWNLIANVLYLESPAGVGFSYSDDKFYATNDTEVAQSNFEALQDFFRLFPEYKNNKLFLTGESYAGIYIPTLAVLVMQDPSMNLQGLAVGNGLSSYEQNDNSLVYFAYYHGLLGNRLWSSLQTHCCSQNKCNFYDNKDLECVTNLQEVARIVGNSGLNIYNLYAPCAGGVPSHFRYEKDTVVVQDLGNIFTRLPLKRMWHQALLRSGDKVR
T4 sequence (P10619 327-480 limits assumed): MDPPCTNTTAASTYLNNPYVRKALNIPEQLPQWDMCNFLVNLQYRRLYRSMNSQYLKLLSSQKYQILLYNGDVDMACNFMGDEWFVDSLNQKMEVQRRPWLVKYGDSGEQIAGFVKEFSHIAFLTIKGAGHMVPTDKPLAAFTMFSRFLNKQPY
Nature of the data set: CatA-catalyzed hydrolysis of fluorogenic peptide substrate, inhibition. Format: biochemical. On the set-up: purchased R&D Systems (Minneapolis, MN). Here is the method: The reaction was studied under both pH 6.5 (to match CatA-catalyzed RDV reaction conditions with minimal acidic hydrolysis) and pH 5.5 (to mimic acidic lysosomal environment). CatA was initially activated following the manufacturer’s protocol. […] Threefold dilutions of compounds were prepared in 100% DMSO. The final DMSO concentration was kept constant at 1% (vol/vol). […] The slopes of the progress curves were used to measure reaction rates. Reaction rates were plotted as a function of inhibitor concentration, and the data were fit with a four-parameter logistic fit using GraphPad Prism software to yield IC50 values.
as §2

In the next data set the target is T5, CES2 (Homo sapiens, UniProt O00748).
T5 construct: purchased Corning Incorporated (Corning, NY); host or cells: baculovirus-infected insect cells (microsomal fraction, Supersomes)
T5 sequence (O00748 27-559): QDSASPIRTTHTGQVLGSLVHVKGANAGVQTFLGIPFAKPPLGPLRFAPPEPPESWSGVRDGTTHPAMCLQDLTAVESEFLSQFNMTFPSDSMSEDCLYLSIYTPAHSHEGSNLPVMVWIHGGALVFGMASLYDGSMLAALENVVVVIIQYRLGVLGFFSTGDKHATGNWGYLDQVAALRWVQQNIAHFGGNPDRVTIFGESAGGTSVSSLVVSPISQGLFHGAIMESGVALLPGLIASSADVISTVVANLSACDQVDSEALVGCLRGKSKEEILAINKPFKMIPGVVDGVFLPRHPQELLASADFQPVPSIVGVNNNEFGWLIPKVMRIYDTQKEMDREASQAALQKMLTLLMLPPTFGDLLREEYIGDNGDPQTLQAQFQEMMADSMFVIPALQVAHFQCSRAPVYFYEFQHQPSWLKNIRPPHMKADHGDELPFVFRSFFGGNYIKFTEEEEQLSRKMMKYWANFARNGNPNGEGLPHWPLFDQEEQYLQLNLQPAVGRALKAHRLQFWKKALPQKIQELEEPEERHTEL
Kind of data set: CES2-catalyzed hydrolysis of 4-NPA, inhibition by inhibitors. Format: biochemical. Here is the method: as §1, §2

Another data set concerns SARS-CoV-2. Nature of the data set: microbe, parasite or virus in culture. Format: cell-based. Particulars: compound alone (plus DMSO), A549-hACE2 cells, 48 h.
In data set [3] the test system is CatA. On the set-up: method as in PMID 20801890, PMID 25870059. Particulars: published data ref 7, 9; cited from earlier work.
Data set [4] in a line: A549-hACE2 cytotoxicity analysis. Conditions: human, A549-hACE2 cells.
Protocol: The cytotoxicity of compounds was determined in A549-hACE2 cells in the following manner. A549-hACE2 cells (12,000 cells per well in medium containing 2% FBS) were plated into a black opaque 96-well plate (Corning). The next day, 3-fold serial dilutions of compounds were prepared in DMSO in a manner to normalize the DMSO concentration among all cell culture wells. The compounds were further diluted 500-fold in the culture medium containing 2% FBS. Spent medium from overnight incubation was aspirated, 100 μl of diluted compound solutions were added to each well, and cultures were returned to 37°C with 5% CO2. […] Luciferase signals were measured using an Envision microplate reader. The relative luciferase signals were calculated by normalizing the luciferase signals of the compound-treated groups to that of the DMSO-treated groups (set as 100%). The relative luciferase signal (y axis) versus the compound concentration (x axis) was plotted in software GraphPad Prism 8 (version 8). […] Three independent experiments were performed with technical duplicates.
Data set [5] relates to cellular activation of sofosbuvir (SOF). Nature of the data set: Effect of HINT1 inhibitors on cellular activation of sofosbuvir. Format: cell-based. Particulars: data not shown.
For data set [6], the target named is HINT1. On the set-up: method as in PMID 31503445. Conditions: previously reported by Shah et al. ref 17; read-out: dissociation constant [Kd], HINT1; cited from earlier work.
Setting [7] is: substrate 4-NPA, read-out: Inhibition (IC50) of enzyme activities, CES1b.
Where [8] appears, read: substrate 4-NPA, read-out: Inhibition (IC50) of enzyme activities, CES1c.
[9] abbreviates: substrate RDV MetX, read-out: Inhibition (IC50) of enzyme activities, HINT1.
[10] abbreviates: pH 5.5, fluorogenic peptide substrate, read-out: Inhibition (IC50) of enzyme activities, CatA pH 5.5.
[11] abbreviates: pH 6.5, fluorogenic peptide substrate, read-out: Inhibition (IC50) of enzyme activities, CatA pH 6.5.

Read-outs that look alike come from different tables or passages of the source.

The values below come from publication PMC8370248, “Key Metabolic Enzymes Involved in Remdesivir Activation in Human Lung Cells” (Antimicrobial Agents and Chemotherapy, 2021).

Protocol for NHBE cells: Cells were harvested at 24 h after compound addition, and the GS-443902 levels were assessed by an LC-MS method.
NHBE cells (5 × 10^5) in 2 ml of BEGM media were seeded in each well of a 6-well plate and incubated overnight at 37°C and 5% CO2. […] Twenty-four hours post-compound addition, the cells were washed 3× with 1 ml of cold 1× Tris-HCl (pH 7.0)-buffered saline, and cells were harvested in 500 μl dry ice-cold extraction buffer (0.1% potassium hydroxide and 67 mM ethylenediamine tetra-acetic acid in 70% methanol, containing 0.5 μM chloro-ATP as internal standard) and transferred to a deep-well block on dry ice. The deep-well block was stored at −80°C until processing. At the time of harvest, two untreated wells for each donor were trypsinized, and the cell counts were determined. All compound combinations were tested in duplicate in cells from three donors.
Each NHBE sample was treated with 500 μl of dry ice-cold extraction buffer (0.1% potassium hydroxide and 67 mM ethylenediamine tetra-acetic acid in 70% methanol, containing 0.5 μM chloro-ATP as internal standard). The above solution was vortexed for 5 min and then centrifuged at 20,000 × g for 10 min. The supernatant was transferred to a clean 96-deep-well plate and then dried on an evaporator. Once dry, samples were reconstituted with 80 μl of 1 mM ammonium phosphate buffer (pH 7) and transferred to a 96-short-well plate for analysis. An aliquot of 10 μl was injected into a Sciex QTrap 6500+ liquid chromatography-tandem mass spectrometry (LC-MS/MS) system run under the multiple reaction monitoring (MRM) operation mode.
Standard calibration curves for NHBE were constructed based on pmol of compound per sample. […] Using the calibration curve, the amount of the metabolites was quantified in each sample, and the intracellular concentrations (pmol/million cells) were determined by dividing the value by the cell number in the sample.

With `O=[N+]([O-])c1ccc(OP(=O)(O)Oc2ccc([N+](=O)[O-])cc2)cc1` [BNPP, bis(4-nitrophenyl)phosphate], the IC50 (in general, the concentration that gives 50% inhibition) was 0.75 ± 0.12 µM at CES1b (setting [7]); 14 ± 5.6 µM at CES1c (setting [8]); over 100 µM at HINT1 [1] (setting [9]); 110 nM with CES1; over 100000 nM at CatA [2] (setting [10]); over 100000 nM on CatA [2] (setting [11]). In addition, in the data set on NHBE cells, the “Effect on GS-443902 formation in NHBE cells” value (from here on “Effect on GS-443902 formation”) is recorded as “did not cause a significant change in GS-443902 formation”.
On to `CCC[C@H](NC(=O)[C@@H]1[C@H]2CCC[C@H]2CN1C(=O)[C@@H](NC(=O)[C@@H](NC(=O)c1cnccn1)C1CCCCC1)C(C)(C)C)C(=O)C(=O)NC1CC1` [Telaprevir], for which the IC50 against CES1b was over 100 µM; at CES1c, over 100 µM; at CES2 it was over 100 µM; against HINT1 [1] it was over 100 µM; in the data set with CatA [3] it was 210 nM; against CatA [2] (IC50 values range for CatA, range over pH 6.5 and pH 5.5) it was 78 to 340 nM. Moreover, the IC50 was found to be 340 ± 60 nM against CatA [2] (Inhibition (IC50) of enzyme activities, CatA pH 5.5, pH 5.5, fluorogenic peptide substrate) and 78 ± 9 nM at CatA [2] (Inhibition (IC50) of enzyme activities, CatA pH 6.5, pH 6.5, fluorogenic peptide substrate). Also, the “Effect on GS-443902 formation” value with NHBE cells is reported as “dose-dependent inhibition of GS-443902 formation”. The EC50 – broadly, the concentration giving half of the maximal effect – with SARS-CoV-2 was over 50 µM. For the same compound, the half-maximal cytotoxic concentration (CC50) – broadly, the concentration at which the toxic effect on the cells reaches its halfway point – at 48 h in data set [4] worked out at 29.2 µM.
Consider `Nc1nc2c(ncn2[C@@H]2O[C@H](COC(=O)NCCc3c[nH]c4ccccc34)[C@@H](O)[C@H]2O)c(=O)[nH]1` [TrpGc], for which the IC50 was over 100 µM at CES1b (setting [7]); over 100 µM at CES1c (setting [8]); over 100 µM on CES2 (substrate 4-NPA, read-out: Inhibition (IC50) of enzyme activities, CES2); 1.5 ± 0.5 µM on HINT1 [1] (setting [9]); over 100000 nM at CatA [2] (setting [10]); over 100000 nM at CatA [2] (setting [11]). Moreover, in the data set with NHBE cells, the “Effect on GS-443902 formation” value is recorded as “neither of them significantly altered”. The “Effect on cellular activation of sofosbuvir (SOF)” value in data set [5] is recorded as “neither TrpGc nor compound 7”. In addition, the Kd (in general, the concentration at which binding is half-saturated) on HINT1 [6] is 3.65 µM.
